Assay results from patent US20150368195A1, “INDOLINE COMPOUNDS FOR TREATMENT AND/OR PREVENTION OF INFLAMMATION DISEASES” (Taipei Medical University, priority 2014, published 2015).
“Also recorded” adds a separate entry of the source.

What was measured:
[1] = system: HIG-82 synoviocytes; assay: SRB anti-proliferation assay; format: cell-based; details: 24 or 48 h incubation
Excerpt: (§1) (FIG. 1A) Structure of MPT0G009. […] Results in (FIGS. 1B-E) and (FIG. 1G) are means±SEM's for three independent experiments, *p<0.05 and **p<0.01 compared with no added inhibitor.

[2] = system: RA-FLS; assay: SRB anti-proliferation assay; format: cell-based; details: 24 or 48 h incubation
Excerpt: as §1

[3] = system: RAW264.7 macrophages; assay: M-CSF/RANKL-induced osteoclast formation; format: cell-based, Mouse; details: 5 nM MPT0G009 or 50 nM SAHA; M-CSF/RANKL 50 ng/mL, 5 days
Procedure: Cells were then tartrate resistant acid phosphatase (TRAP) stained, and the numbers of TRAP-positive multinuclear cells were counted. […] Images are at ×100 magnification, and the arrows indicate differentiated osteoclasts. (FIG. 6C) RAW264.7 cells were treated as in (FIG. 6B), then incubated with a fluorescein isothiocyanate (FITC)-conjugated anti-CD51/61 antibody and analyzed by flow cytometry. (FIGS. 6D and 6E) RAW264.7 cells (1×10^5) were transfected with 1 μg of pGL4.32[luc2P/NF-κB-RE/Hygro] (FIG. 6D) or pGL4.30[luc2P/NFAT-RE/Hygro] (FIG. 6E) for 24 h and then incubated for 30 min with or without MPT0G009 (5 nM). Then RANKL (50 ng/mL) was added and incubation was continued for an additional 24 h, after which luciferase activity was determined. Results in (FIGS. 6A, 6D, and 6E) are the means±SEM's for three independent experiments. **p<0.01 compared with the indicated controls.
Bone destruction is one characteristic of RA pathogenesis, resulting in joint dysfunction. Differentiation of mouse macrophages osteoclast-like cells can be induced in the presence of M-CSF and RANKL, which has been used as a model to investigate osteoclast differentiation. […] Subsequently, multinucleate tartrate resistant acid phosphatase (TRAP)-positive cells were counted.

[4] = system: CTGF; assay: pro-fibrogenic mediator-induced CTGF production, Western blot; format: cell-based, human; details: WI-38 lung fibroblasts
Procedure: (§2) Western blot analysis was performed. First, WI-38 lung fibroblasts were incubated with different concentrations of MPT0E028 (0.01, 0.03, 0.1, 0.3, or 1 μM) (FIG. 10A) or MPT0G009 (0.01, 0.03, 0.1, 0.3, or 1 μM) (FIG. 10B) for 30 min before and during incubation for 2 h with TGF-β (10 ng/mL). WI-38 lung fibroblasts were incubated with 1 μM MPT0E028 and MPT0G009 for 30 min and following another incubation for 2 h with 1 U/ml thrombin (FIG. 10C) and 10 nM ET-1 (FIG. 10D). The collagen I production from WI-38 lung fibroblasts stimulated by 10 ng/mL TGF-β for 24 h was inhibited with 1 μM MPT0E028 and MPT0G009 pretreatment (FIG. 10E).
WI-38 cells, a normal human embryonic lung fibroblast cell line, were obtained from American Type Culture Collection (Manassas, Va.). Cells were grown in MEM nutrient mixture, containing 10% FCS, 2 mM L-glutamine, 0.1 mM NEAA, 1 mM sodium pyruvate, 50 U/ml penicillin G, and 100 μg/ml streptomycin, in a humidified 37° C. incubator with 5% CO2 Cells were used between passages 18 and 30 for all experiments. After reaching confluence, cells were seeded onto 6-cm dishes for immunoblotting.
Western blot analyses were performed as described previously (Chen B C, Chang Y S, Kang J C, Hsu M J, Sheu J R, Chen T L, et al. Peptidoglycan induces nuclear factor-kappaB activation and cyclooxygenase-2 expression via Ras, Raf-1, and ERK in RAW 264.7 macrophages. J Biol Chem 2004; 279:20889-97). Briefly, WI-38 lung fibroblasts were cultured in 6-cm dishes. After reaching confluence, cells were pretreated with specific inhibitors (E028 and G009) as indicated for 30 min, and then treated with the vehicle (H2O) or 10 ng/ml TGF-β for 2 h (CTGF assay) or 24 h (collagen I assay). Whole-cell lysates ([…]) were subjected to 12% (CTGF) or 8% (collagen I) SDS-PAGE, and transferred onto a polyvinylidene difluoride membrane which was then incubated in TBST buffer (150 mM NaCl, 20 mM Tris-HCl, and 0.02% Tween 20; pH 7.4) containing 5% BSA. Proteins were visualized by specific primary antibodies and then incubated with HRP-conjugated secondary antibodies. The immunoreactivity was detected using enhanced chemiluminescence (ECL) following the manufacturer's instructions. Quantitative data were obtained using a computing densitometer with scientific imaging systems (Kodak, Rochester, N.Y.).
To determine whether the inhibitory effects of MPT0E028 and MPT0G009 on pro-fibrogenic mediators (TGF-β, thrombin, and ET-1) were related to the modulation of CTGF and Collagen I production, Western blot analysis was performed. First, WI-38 lung fibroblasts were incubated with different concentrations of MPT0E028 (0.01, 0.03, 0.1, 0.3, or 1 μM) (FIG. 10A) or MPT0G009 (0.01, 0.03, 0.1, 0.3, or 1 μM) (FIG. 10B) for 30 min before and during incubation for 2 h with TGF-β (10 ng/mL). […] Furthermore, we examined the effects of MPT0E028 and MPT0G009 on other pro-fibrogenic mediators. As shown in FIGS. 10C and 10D, WI-38 lung fibroblasts were incubated with 1 μM MPT0E028 and MPT0G009 for 30 min and following another incubation for 2 h with 1 U/ml thrombin (FIG. 10C) and 10 nM ET-1 (FIG. 10D).

[5] = system: collagen I; assay: TGF-β-induced collagen I production, Western blot; format: cell-based, human; details: WI-38 lung fibroblasts; 1 μM pretreatment; TGF-β 10 ng/mL 24 h
Procedure: as §2
WI-38 cells, a normal human embryonic lung fibroblast cell line, were obtained from American Type Culture Collection (Manassas, Va.). […]
Western blot analyses were performed as described previously (Chen B C, Chang Y S, Kang J C, Hsu M J, Sheu J R, Chen T L, et al. Peptidoglycan induces nuclear factor-kappaB activation and cyclooxygenase-2 expression via Ras, Raf-1, and ERK in RAW 264.7 macrophages. J Biol Chem 2004; 279:20889-97). […] The immunoreactivity was detected using enhanced chemiluminescence (ECL) following the manufacturer's instructions. Quantitative data were obtained using a computing densitometer with scientific imaging systems (Kodak, Rochester, N.Y.). […]

[6] = system: histone H3 (Acetyl-H3); assay: histone H3 acetylation, Western blot, RA-FLS; format: cell-based; details: 1 μM MPT0G009 or 30 μM SAHA; 6, 12, 24 h; starting at 12 h
Procedure: Then cells were harvested and cell lysates were prepared for Western blot analysis of the indicated proteins. (FIG. 5C) RA-FLS were incubated for 1 h with or without the proteasome inhibitor, MG132 (1 μM). […] Results shown are representative of three independent experiments.
This was a proteasome-dependent effect because it was reduced by pretreatment with the proteasome inhibitor, MG132 (1 μM; FIG. 5c).

[7] = system: HDAC1 and HDAC6; assay: overexpression of HDAC1 and HDAC6 in RAW264.7 macrophages or RA-FLS
Procedure: (TRAP) stained, and the numbers of TRAP-positive multinuclear cells were counted (FIG. 7D) or were incubated with a fluorescein isothiocyanate (FITC)-conjugated anti-CD51/61 antibody and analyzed by flow cytometry (FIG. 7E).

For `COc1ccc(S(=O)(=O)N2CCc3cc(C=CC(=O)NO)ccc32)cc1` [Compound 9, 3-[1-(4-methoxybenzenesulfonyl)-2,3-dihydro-1H-indol-5-yl]-N-Hydroxyacrylamide], the “proliferation of HIG-82 synoviocytes” value [1] was “concentration-dependent anti-proliferative effects”, the “proliferation of RA-FLS” value [2] was “concentration-dependent anti-proliferative effects” and the “expression of osteoclast-specific marker CD51/61” value [3] was “significantly inhibited”. The “formation of M-CSF/RANKL-induced TRAP-positive cells” value [3] was “significantly inhibited; also recorded: inhibits”, the “ET-1-induced CTGF expression” value ([4]; 1 μM, 10 nM ET-1 2 h) was “inhibited” and the “thrombin-induced CTGF expression” value ([4]; 1 μM, 1 U/ml thrombin 2 h) was “inhibited”. The “TGF-β-induced CTGF production” value ([4]; 0.01-1 μM, TGF-β 10 ng/mL 2 h) was “significantly inhibited”, the “collagen I production” value [5] was “inhibited” and the “acetylation of histone H3 in RA-FLS” value [6] was “significant hyperacetylation of histone H3”. The “effect of HDAC overexpression on inhibition of M-CSF/RANKL-induced osteoclast differentiation and CD51/61 expression” value ([7]; 5 nM MPT0G009, transfected RAW264.7) was “significantly reduced” and the “effect of HDAC overexpression on inhibition of LPS-mediated NO or PGE2 release” value ([7]; 10 μM MPT0G009 or 30 μM SAHA, HDAC1- and HDAC6-coexpressing RAW264.7 or RA-FLS) was “significantly reduced the inhibitory effects”.
